Reference: patent US4950669A, “Methods and compositions for promoting growth of animals” (priority 1987, dated 1990)

How the values were obtained:
[1] = hypotensive effect in the awake rabbit; format: in vivo; conditions: same dosage (100 mg/kg) i.p.
[2] = six-week swine feeding study, weanling barrows (Example XI); format: in vivo; conditions: six weeks; for daily feed (rel.) / Avg. daily gain (rel.): control = 100; for Avg. daily gain / Avg. daily gain (rel.): swine feed
Procedure: N-morpholinyl-β-benzoyl-propionamide was admixed with swine feed at 20 ppm and at 60 ppm. A six-week feeding study was conducted using weanling barrows. Pigs averaging 8.80 kg initially (4-5 weeks of age) were housed four pigs per pen. Test diets were fed ad libitum throughout the six-week study. Average final weight for all pigs was 27.33 kg.

[3] = 44-day floor pen study in chickens (Example XIV); format: in vivo
Procedure: A 44-day floor pen study was conducted in which n-morpholinyl-β-benzoyl-propionamide was administered in chicken feed at concentrations of 1 ppm, 2.5 ppm, 5 ppm, 10 ppm, 20 ppm, 40 ppm and 60 ppm. One group of controls received no medication in its feed, while a second control group received Bacitracin MD in its feed at 30 g/ton. Birds were fed ad libitum. There were 5 replications per treatment, 50 birds per replication. Birds were weighed to determine weight gain and feed-to-gain ration after 35 days and 44 days.

[4] = 44-day floor-pen study in chickens (Example XV); format: in vivo; conditions: 44 days
Text: There were 60 chickens per replication, 3 replications per treatment. One group of controls was unmedicated, while a second control group received Bacitracin in the feed at 30 g/ton.

[5] = 70-day lamb study, oral or i.m. injection (Example XVII); format: in vivo, lambs
Procedure: A 70-day study was conducted in which N-morpholinyl-β-benzoyl-propionamide was administered to lambs by i.m. injection or by admixture with feed. In the case of oral administration, the N-morpholinyl-β-benzoyl-propionamide was mixed with the complete mixed ration at a level of 30 ppm.

[6] = Injection, 1.5 mg/kg i.m. every 2 weeks
[7] = Injection, 1.5 mg/kg i.m. every 2 weeks, Day 0-14
[8] = Injection, 1.5 mg/kg i.m. every 2 weeks, Day 0-28
[9] = Injection, 1.5 mg/kg i.m. every 2 weeks, Day 0-42
[10] = Injection, 1.5 mg/kg i.m. every 2 weeks, Day 0-56
[11] = Injection, 1.5 mg/kg i.m. every 2 weeks, Day 0-70
[12] = Injection, 1.5 mg/kg i.m. every 2 weeks, Day 15-28
[13] = Injection, 1.5 mg/kg i.m. every 2 weeks, Day 29-42
[14] = Injection, 1.5 mg/kg i.m. every 2 weeks, Day 43-56
[15] = Injection, 1.5 mg/kg i.m. every 2 weeks, Day 57-70

In the case of `O=C(CCC(=O)N1CCOCC1)c1ccccc1` [NMBP, N-morpholinyl-β-benzoyl-propionamide], the hypotensive effect [1] was “not hypotensive”, the “daily feed” value ([2]; 20 ppm) was 1.022 kg and the “daily feed (rel.)” value ([2]; 20 ppm) was 107. For the same compound, the “daily feed” value ([2]; 60 ppm) was 0.96 kg, the “daily feed (rel.)” value ([2]; 60 ppm) was 101 and the “Avg. daily gain” value ([2]; 20 ppm) was 0.45 kg. For the same compound, the “Avg. daily gain (rel.)” value ([2]; 20 ppm) was 108, the “Avg. daily gain” value ([2]; 60 ppm) was 0.42 kg and the “Avg. daily gain (rel.)” value ([2]; 60 ppm) was 100. For the same compound, the F/G ([3]; feed 1 ppm, Day 35) was 1.60, the “Weight Gain” value ([3]; feed 1 ppm, Day 35) was 1379 g and the F/G ([3]; feed 1 ppm, Day 44) was 1.72. For the same compound, the “Weight Gain” value ([3]; feed 1 ppm, Day 44) was 1917 g, the F/G ([3]; feed 2.5 ppm, Day 35) was 1.55 and the “Weight Gain” value ([3]; feed 2.5 ppm, Day 35) was 1431 g. For the same compound, the F/G ([3]; feed 2.5 ppm, Day 44) was 1.69, the “Weight Gain” value ([3]; feed 2.5 ppm, Day 44) was 1961 g and the F/G ([3]; feed 5 ppm, Day 35) was 1.61. For the same compound, the “Weight Gain” value ([3]; feed 5 ppm, Day 35) was 1381 g, the F/G ([3]; feed 5 ppm, Day 44) was 1.72 and the “Weight Gain” value ([3]; feed 5 ppm, Day 44) was 1929 g. The F/G ([3]; feed 10 ppm, Day 35) was 1.60, the “Weight Gain” value ([3]; feed 10 ppm, Day 35) was 1356 g and the F/G ([3]; feed 10 ppm, Day 44) was 1.74. The “Weight Gain” value ([3]; feed 10 ppm, Day 44) was 1883 g, the F/G ([3]; feed 20 ppm, Day 35) was 1.61 and the “Weight Gain” value ([3]; feed 20 ppm, Day 35) was 1364 g. For the same compound, the F/G ([3]; feed 20 ppm, Day 44) was 1.72, the “Weight Gain” value ([3]; feed 20 ppm, Day 44) was 1901 g and the F/G ([3]; feed 40 ppm, Day 35) was 1.63. The “Weight Gain” value ([3]; feed 40 ppm, Day 35) was 1334 g, the F/G ([3]; feed 40 ppm, Day 44) was 1.72 and the “Weight Gain” value ([3]; feed 40 ppm, Day 44) was 1898 g. For the same compound, the F/G ([3]; feed 60 ppm, Day 35) was 1.57, the “Weight Gain” value ([3]; feed 60 ppm, Day 35) was 1334 g and the F/G ([3]; feed 60 ppm, Day 44) was 1.72. The “Weight Gain” value ([3]; feed 60 ppm, Day 44) was 1875 g, the “Average Live Bird Weight” value ([4]; feed 1.0 ppm) was 2.13 kg and the “Feed Conversion” value ([4]; feed 1.0 ppm) was 1.72. For the same compound, the “Average Live Bird Weight” value ([4]; feed 2.5 ppm) was 2.14 kg, the “Feed Conversion” value ([4]; feed 2.5 ppm) was 1.73 and the “Average Live Bird Weight” value ([4]; feed 5 ppm) was 2.08 kg. The “Feed Conversion” value ([4]; feed 5 ppm) was 1.75, the “Average Live Bird Weight” value ([4]; feed 10 ppm) was 2.14 kg and the “Feed Conversion” value ([4]; feed 10 ppm) was 1.72. For the same compound, the “Average Live Bird Weight” value ([4]; feed 20 ppm) was 2.12 kg, the “Feed Conversion” value ([4]; feed 20 ppm) was 1.72 and the “Average Live Bird Weight” value ([4]; feed 40 ppm) was 2.10 kg. The “Feed Conversion” value ([4]; feed 40 ppm) was 1.75, the “Average Live Bird Weight” value ([4]; feed 60 ppm) was 2.14 kg and the “Feed Conversion” value ([4]; feed 60 ppm) was 1.75. For the same compound, the “weight loss of one lamb” value ([5]; Injection group, during the previous 2-week period, sacrificed on Day 55) was 10 pounds, the “Necropsy of one lamb” value ([5]; Injection group, one lamb sacrificed on Day 55) was “chronic focal pneumonia” and the “Daily Gain, Period” value [5, 6] was “.16 kilograms”. The “Weight, Final” value [5, 6] was 42.1 kilograms, the “Weight, Initial” value ([5]; Injection, 1.5 mg/kg i.m. every 2 weeks (baseline)) was 27.6 kilograms and the “Daily Feed DM Consumption, Cumulative” value [5, 7] was 0.94 kilograms. The “Daily Feed DM Consumption, Period” value [5, 7] was 0.94 kilograms, the “Daily Gain, Cumulative” value [5, 7] was “.23 kilograms” and the “Daily Gain, Period” value [5, 7] was “.23 kilograms”. For the same compound, the “Feed DM/Gain, Cumulative” value [5, 7] was 4.09, the “Feed DM/Gain, Period” value [5, 7] was 4.09 and the “Daily Feed DM Consumption, Cumulative” value [5, 8] was 1.00 kilograms. The “Daily Gain, Cumulative” value [5, 8] was “.22 kilograms”, the “Feed DM/Gain, Cumulative” value [5, 8] was 4.55 and the “Daily Feed DM Consumption, Cumulative” value [5, 9] was 1.05 kilograms. For the same compound, the “Daily Gain, Cumulative” value [5, 9] was “.22 kilograms”, the “Feed DM/Gain, Cumulative” value [5, 9] was 4.77 and the “Daily Feed DM Consumption, Cumulative” value [5, 10] was 1.06 kilograms. The “Daily Gain, Cumulative” value [5, 10] was “.22 kilograms”, the “Feed DM/Gain, Cumulative” value [5, 10] was 4.82 and the “Daily Feed DM Consumption, Cumulative” value [5, 11] was 1.11 kilograms. For the same compound, the “Daily Gain, Cumulative” value [5, 11] was “.21 kilograms”, the “Feed DM/Gain, Cumulative” value [5, 11] was 5.29 and the “Daily Feed DM Consumption, Period” value [5, 12] was 1.06 kilograms. The “Daily Gain, Period” value [5, 12] was “.21 kilograms”, the “Feed DM/Gain, Period” value [5, 12] was 5.05 and the “Daily Feed DM Consumption, Period” value [5, 13] was 1.14 kilograms. The “Daily Gain, Period” value [5, 13] was “.22 kilograms”, the “Feed DM/Gain, Period” value [5, 13] was 5.18 and the “Daily Feed DM Consumption, Period” value [5, 14] was 1.12 kilograms. The “Daily Gain, Period” value [5, 14] was “.22 kilograms”, the “Feed DM/Gain, Period” value [5, 14] was 5.09 and the “Daily Feed DM Consumption, Period” value [5, 15] was 1.29 kilograms. For the same compound, the “Feed DM/Gain, Period” value [5, 15] was 8.06, the “Daily Gain, Period” value ([5]; Oral, 30 ppm) was “.14 kilograms” and the “Weight, Final” value ([5]; Oral, 30 ppm) was 43.0 kilograms. The “Weight, Initial” value ([5]; Oral, 30 ppm (baseline)) was 28.1 kilograms, the “Daily Feed DM Consumption, Cumulative” value ([5]; Oral, 30 ppm, Day 0-14) was 1.05 kilograms and the “Daily Feed DM Consumption, Period” value ([5]; Oral, 30 ppm, Day 0-14) was 1.05 kilograms. The “Daily Gain, Cumulative” value ([5]; Oral, 30 ppm, Day 0-14) was “.27 kilograms”, the “Daily Gain, Period” value ([5]; Oral, 30 ppm, Day 0-14) was “.27 kilograms” and the “Feed DM/Gain, Cumulative” value ([5]; Oral, 30 ppm, Day 0-14) was 3.89. The “Feed DM/Gain, Period” value ([5]; Oral, 30 ppm, Day 0-14) was 3.89, the “Daily Feed DM Consumption, Cumulative” value ([5]; Oral, 30 ppm, Day 0-28) was 1.10 kilograms and the “Daily Gain, Cumulative” value ([5]; Oral, 30 ppm, Day 0-28) was “.24 kilograms”. The “Feed DM/Gain, Cumulative” value ([5]; Oral, 30 ppm, Day 0-28) was 4.58, the “Daily Feed DM Consumption, Cumulative” value ([5]; Oral, 30 ppm, Day 0-42) was 1.12 kilograms and the “Daily Gain, Cumulative” value ([5]; Oral, 30 ppm, Day 0-42) was “.23 kilograms”. The “Feed DM/Gain, Cumulative” value ([5]; Oral, 30 ppm, Day 0-42) was 4.87, the “Daily Feed DM Consumption, Cumulative” value ([5]; Oral, 30 ppm, Day 0-56) was 1.14 kilograms and the “Daily Gain, Cumulative” value ([5]; Oral, 30 ppm, Day 0-56) was “.23 kilograms”. The “Feed DM/Gain, Cumulative” value ([5]; Oral, 30 ppm, Day 0-56) was 4.96, the “Daily Feed DM Consumption, Cumulative” value ([5]; Oral, 30 ppm, Day 0-70) was 1.16 kilograms and the “Daily Gain, Cumulative” value ([5]; Oral, 30 ppm, Day 0-70) was “.21 kilograms”. For the same compound, the “Feed DM/Gain, Cumulative” value ([5]; Oral, 30 ppm, Day 0-70) was 5.52, the “Daily Feed DM Consumption, Period” value ([5]; Oral, 30 ppm, Day 15-28) was 1.16 kilograms and the “Daily Gain, Period” value ([5]; Oral, 30 ppm, Day 15-28) was “.20 kilograms”. The “Feed DM/Gain, Period” value ([5]; Oral, 30 ppm, Day 15-28) was 5.80, the “Daily Feed DM Consumption, Period” value ([5]; Oral, 30 ppm, Day 29-42) was 1.17 kilograms and the “Daily Gain, Period” value ([5]; Oral, 30 ppm, Day 29-42) was “.22 kilograms”. For the same compound, the “Feed DM/Gain, Period” value ([5]; Oral, 30 ppm, Day 29-42) was 5.32, the “Daily Feed DM Consumption, Period” value ([5]; Oral, 30 ppm, Day 43-56) was 1.19 kilograms and the “Daily Gain, Period” value ([5]; Oral, 30 ppm, Day 43-56) was “.23 kilograms”. The “Feed DM/Gain, Period” value ([5]; Oral, 30 ppm, Day 43-56) was 5.17, the “Daily Feed DM Consumption, Period” value ([5]; Oral, 30 ppm, Day 57-70) was 1.26 kilograms and the “Feed DM/Gain, Period” value ([5]; Oral, 30 ppm, Day 57-70) was 9.00.
